Source: ChEMBL document CHEMBL5678797, “AZD7762, a novel checkpoint kinase inhibitor, drives checkpoint abrogation and potentiates DNA-targeted therapies” (Mol Cancer Ther, 2008)

Columns and labels:
HCT-116 [1] = experiment: Induction of G2 check point abrogation in human HCT-116 cells assessed as accumulation of cells at G1 phase incubated for 30 hrs by fluorescence-activated cell sorting analysis (reference value: 68.52%); format: functional
MDA-MB-231 [2] = experiment: cells; details: Homo sapiens, MDA-MB-231, 48 h
HCT-116 [3] = experiment: Induction of G2 check point abrogation in human HCT-116 cells assessed as accumulation of cells at G2 phase incubated for 30 hrs by fluorescence-activated cell sorting analysis (reference value: 9.45%); format: functional
[4] = Toxicity in athymic mouse assessed as maximum weight loss at 25 mg/kg measured after 17 to 94 days post tumor implantation; format: organism-based; details: in vivo, time 17-94 day
SW-620 [5] = experiment: Antitumor activity against human SW620 cells xenografted in athymic mouse model assessed as T/C ratio at 25 mg/kg measured after 17 to 94 days post tumor implantation by caliper method relative to control; format: functional; details: time 17-94 day
SW-620 [6] = experiment: Antitumor activity against human SW620 cells xenografted in athymic mouse model assessed as T/C ratio at 50 mg/kg measured after 17 to 94 days post tumor implantation by caliper method relative to control; format: functional; details: time 17-94 day
[7] = Toxicity in athymic mouse assessed as maximum weight loss at 50 mg/kg measured after 17 to 94 days post tumor implantation; format: organism-based; details: in vivo, time 17-94 day
[8] = Toxicity in rnu rat assessed as appearance of hemorrhage at 10 mg/kg measured after 10 to 30 days; format: organism-based; details: in vivo, time 10-30 day
[9] = Toxicity in rnu rat assessed as appearance of skin rashes at 10 mg/kg measured after 10 to 30 days; format: organism-based; details: in vivo, time 10-30 day
SW-620 [10] = experiment: Growth inhibition of human SW620 cells expressing p53 mutant assessed as reduction in cell growth incubated for 48 hrs; format: functional
HCT-116 [11] = experiment: Induction of G2 check point abrogation in human HCT-116 cells assessed as accumulation of cells at G2 phase incubated for 30 hrs in presence of topotecan by fluorescence-activated cell sorting analysis (reference value: 9.45%); format: functional
NCI-H460 [12] = experiment: Antitumor activity against human NCI-H460 cells expressing DNp53 mutant xenografted in NCr athymic mouse model assessed as reduction in tumor volume at 25 mg/kg measured after 10 to 45 days in presence of gemcitabine by caliper method relative to control; format: functional; set-up: scale not given: the % may be the effect or the level left; details: time 10-45 day
NCI-H460 [13] = experiment: Antitumor activity against human NCI-H460 cells expressing DNp53 mutant xenografted in NCr athymic mouse model assessed as T/C ratio at 25 mg/kg measured after 10 to 45 days in presence of gemcitabine by caliper method relative to control; format: functional; details: time 10-45 day
SW-620 [14] = experiment: Growth inhibition of human SW620 cells expressing p53 mutant assessed as reduction in cell growth incubated for 48 hrs in presence of gemcitabine; format: functional
[15] = Toxicity in rnu rat assessed as appearance of skin rashes at 10 to 20 mg/kg, iv measured after 10 to 30 days post tumor implantation; format: organism-based; details: in vivo, dose lower 10 mg/kg, time lower 10 day, dose upper 20 mg/kg, time upper 30 day
[16] = Toxicity in NCr athymic mouse assessed as body weight loss at 25 mg/kg measured after 10 to 45 days in presence of gemcitabine relative to control; format: organism-based; details: in vivo, time 10-45 day
NCI-H460 [17] = experiment: Antitumor activity against human NCI-H460 cells expressing DNp53 mutant xenografted in NCr athymic mouse model assessed as log cell kill 25 mg/kg measured after 10 to 45 days in presence of gemcitabine; format: functional; details: time 10-45 day
[18] = Toxicity in rat at low dose measured after 10 to 30 days post tumor implantation; details: in vivo, time 10-30 day
SW-620 [19] = experiment: Antitumor activity against human SW620 cells xenografted in athymic mouse model assessed as inhibition of tumor volume at 25 mg/kg measured after 17 to 94 days post tumor implantation by caliper method relative to control; format: functional; set-up: scale not given: the % may be the effect or the level left; details: time 17-94 day
HCT-116 [20] = experiment: Induction of G2 check point abrogation in human HCT-116 cells assessed as accumulation of cells at G1 phase incubated for 30 hrs in presence of topotecan by fluorescence-activated cell sorting analysis (reference value: 68.52%); format: functional
[21] = Toxicity in athymic mouse assessed as maximum weight loss at 25 mg/kg measured after 17 to 94 days post tumor implantation in presence of 50 mg/kg of irinotecan; format: organism-based; details: in vivo, time 17-94 day
[22] = Toxicity in rat assessed as effect on body weight loss at high dose measured after 10 to 30 days post tumor implantation; details: in vivo, time 10-30 day
SW-620 [23] = experiment: Antitumor activity against human SW620 cells xenografted in athymic mouse model assessed as T/C ratio at 25 mg/kg measured after 17 to 94 days post tumor implantation in presence of 50 mg/kg of irinotecan by caliper method relative to control; format: functional; details: time 17-94 day
[24] = Toxicity in athymic mouse assessed as maximum weight loss at 25 mg/kg measured after 17 to 94 days post tumor implantation in presence of 25 mg/kg of irinotecan; format: organism-based; details: in vivo, time 17-94 day
NCI-H460 [25] = experiment: Antitumor activity against human NCI-H460 cells expressing DNp53 mutant xenografted in rat model assessed as T/C ratio at 10 mg/kg measured after 10 to 30 days post tumor implantation in presence of gemcitabine by caliper method relative to control; format: functional; details: time 10-30 day
MDA-MB-231 [26] = experiment: Growth inhibition of human MDA-MB-231 cells expressing p53 mutant assessed as reduction in cell growth incubated for 48 hrs in presence of topotecan; format: functional
SW-620 [27] = experiment: Antitumor activity against human SW620 cells xenografted in athymic mouse model assessed as T/C ratio at 25 mg/kg measured after 17 to 94 days post tumor implantation in presence of 25 mg/kg of irinotecan by caliper method relative to control; format: functional; details: time 17-94 day
SW-620 [28] = experiment: Antitumor activity against human SW620 cells xenografted in NCr athymic mouse model assessed as reduction in tumor volume at 25 mg/kg measured from 30 to 55 days in presence of gemcitabine by caliper method relative to control; format: functional; set-up: scale not given: the % may be the effect or the level left; details: time 30-55 day
SW-620 [29] = experiment: Antitumor activity against human SW620 cells xenografted in athymic mouse model assessed as inhibition of tumor volume at 25 mg/kg measured after 17 to 94 days post tumor implantation in presence of 25 mg/kg of irinotecan by caliper method relative to control; format: functional; set-up: scale not given: the % may be the effect or the level left; details: time 17-94 day
SW-620 [30] = experiment: Antitumor activity against human SW620 cells xenografted in athymic mouse model assessed as inhibition of tumor volume at 25 mg/kg measured after 17 to 94 days post tumor implantation in presence of 50 mg/kg of irinotecan by caliper method relative to control; format: functional; set-up: scale not given: the % may be the effect or the level left; details: time 17-94 day
NCI-H460 [31] = experiment: Antitumor activity against human NCI-H460 cells expressing DNp53 mutant xenografted in rat model assessed as T/C ratio at 20 mg/kg measured after 10 to 30 days post tumor implantation in presence of gemcitabine by caliper method relative to control; format: functional; details: time 10-30 day
[32] = Toxicity in NCr athymic mouse xenografted with human SW620 cells assessed as effect on body weight loss at 12.5 to 25 mg/kg measured after 30 to 55 days in presence of gemcitabine; format: organism-based, SW-620; details: in vivo, dose lower 12.5 mg/kg, time lower 30 day, dose upper 25 mg/kg, time upper 55 day
HT-29 [33] = experiment: Induction of cell cycle arrest in human HT-29 cells incubated for 20 hrs by phH3 staining based analysis
SW-620 [34] = experiment: Antitumor activity against human SW620 cells xenografted in NCr athymic mouse model assessed as reduction in tumor volume at 12.5 mg/kg measured from 30 to 55 days in presence of gemcitabine by caliper method relative to control; format: functional; set-up: scale not given: the % may be the effect or the level left; details: time 30-55 day
HT-29 [35] = experiment: Inhibition of camptothecin induced DNA damage in human HT-29 cells assessed as G2 checkpoint abrogation measured after 20 hrs presence of nocodazole by pHH3 staining based analysis

In the case of `CC[C@@]1(O)C(=O)OCc2c1cc1n(c2=O)Cc2cc3c(CN(C)C)c(O)ccc3nc2-1` [TOPOTECAN], the Activity (HCT-116 [1]) is reported as 17.06%, the GI50 (MDA-MB-231 [2]) is reported as 2250 nM and the Activity (HCT-116 [3]) is reported as 75.85%.

`CCc1c2c(nc3ccc(OC(=O)N4CCC(N5CCCCC5)CC4)cc13)-c1cc3c(c(=O)n1C2)COC(=O)[C@]3(O)CC` [IRINOTECAN] showed an Activity [4] of 0%, a T/C (SW-620 [5]) of 9% and a T/C (SW-620 [6]) of 1%. The Activity [7] was -1%.

In the case of `Nc1ccn([C@@H]2O[C@H](CO)[C@@H](O)C2(F)F)c(=O)n1` [GEMCITABINE], the Activity [8] is reported as “Toxic”, the Activity [9] is reported as “Toxic” and the GI50 (SW-620 [10]) is reported as 24.1 nM. For the same compound, the TGI (SW-620 [10]; read-out: GI100) was greater than 100 nM.

Compound `NC(=O)Nc1cc(-c2cccc(F)c2)sc1C(=O)N[C@H]1CCCNC1` [AZD-7762] has an Activity (HCT-116 [11]) of 33.02%, an Activity (NCI-H460 [12]) of 76% and an Activity [4] of 0%. For the same compound, the T/C (NCI-H460 [13]) was 26%, the GI50 (SW-620 [14]) was 1.08 nM and the TGI (SW-620 [14]; read-out: GI100) was 1.5 nM. For the same compound, the T/C (SW-620 [5]) was 56%, the Activity [15] was “Non-Toxic” and the Activity [16] was 7%. The LCK (NCI-H460 [17]) was 0.9, the Activity [18] was “Non-Toxic” and the Activity (SW-620 [19]) was 38%. The Activity (HCT-116 [20]) was 52.86%, the Activity [21] was 0% and the Activity [22] was “Toxic”. For the same compound, the T/C (SW-620 [23]) was -67%, the Activity [24] was 0% and the T/C (NCI-H460 [25]) was 48%. It also gave a GI50 (MDA-MB-231 [26]) of 150 nM, a T/C (SW-620 [27]) of -66% and an Activity (SW-620 [28]) of 77%. For the same compound, the Activity (SW-620 [29]) was 116%, the Activity (SW-620 [30]) was 116% and the T/C (NCI-H460 [31]) was 32%. For the same compound, the Activity [32] was “Non-Toxic”, the EC50 (HT-29 [33]) was 620 nM and the Activity (SW-620 [34]) was 73%. The EC50 (HT-29 [35]) was 10 nM.
